Tests used:
Format in all cases: in vivo
[1] = tested on: Brambles; test: Non-selective activity on brambles (spraying, potted); details: 12 g pure benzyl alcohol (600 L/Ha) in 16 g product (800 L/Ha)
Description: The assays were carried out on potted plants.
The application of the product is carried out with a trigger spray bottle which makes it possible to spray 1 g of product per spraying, as microdroplets. The treated plants are sprinkled with different quantities of water comprising different quantities of pure benzyl alcohol (PanReac AppliChem—ITW Reagents). The untreated (control) plants are sprinkled with the same total quantity of water only.
The brambles are sprinkled with: • 16 g of product (equivalent to 800 L/Ha) including 12 g pure benzyl alcohol for the treated plant (equivalent to 600 L/Ha pure benzyl alcohol), and • 16 g water for the control plants.
The collapsing of the plant, the colour intensity and the diameter of the plant were measured as indicated in Example 1.

[2] = tested on: Dandelion seeds; test: Preventative activity (anti-germination), seeds on agar in Petri dish; details: 0.35 g sprayed (benzyl alcohol pure, 700 L/Ha; glyphosate diluted at 0.5%)
[3] = tested on: Bindweed; test: Preventative herbicide activity by sprinkling of the soil; design: key to Plants sprouted despite the preventative treatment: yes: the areas where the plants have sprouted despite the preventative treatment; no: the areas where the preventative treatment made it possible to prevent the sprouting of the identified plants; details: for Plants sprouted despite the preventative treatment: soil sprinkling
Description: (§1) Areas identified as each year showing the presence of couch grass, grass, bindweeds and thistles were treated preventatively. […] The results are reported in Table 6 below, in which the note “yes” indicates the areas where the plants have sprouted despite the preventative treatment, and the note “no” indicates the areas where the preventative treatment made it possible to prevent the sprouting of the identified plants.

[4] = tested on: Couch grass; test: as above; design: key to Plants sprouted despite the preventative treatment: yes: the areas where the plants have sprouted despite the preventative treatment; no: the areas where the preventative treatment made it possible to prevent the sprouting of the identified plants; details: for Plants sprouted despite the preventative treatment: soil sprinkling
Description: as §1

[5] = tested on: Grass; test: as above; design: key to Plants sprouted despite the preventative treatment: yes: the areas where the plants have sprouted despite the preventative treatment; no: the areas where the preventative treatment made it possible to prevent the sprouting of the identified plants; details: for Plants sprouted despite the preventative treatment: soil sprinkling
Description: as §1

[6] = tested on: Mustard; test: Early post-emergence herbicide activity, visual rating of symptoms; details: cotyledon stage, average of 5 pots
Description: The soil is composed of 50% agricultural soil and 50% vermiculite.
Mustard seeds are sown in a Petri dish up to the stage of emergence of the radicle. The pre-germinated seeds are placed 1 cm deep in 8 cm×8 cm pots at a rate of 5 seeds per pot and 5 pots/repetitions per condition (treated plants and control plants).
On appearance of the cotyledons, the treatment is applied using a spraying bench simulating an outdoor treatment.
The spraying volume of 200 L/ha.
An untreated control (water alone) is added.
The cultivation conditions are 15° C. during the night/20° C. during the day with a photoperiod of 14 hours (light intensity of approximately 300 μmol/s/m^2).
A visual rating of the symptoms at 1, 3 and 7 days after treatment is carried out for the treated plants.
Each value is an average value calculated over 5 pots per condition.

[7] = tested on: squares of grass; test: Outdoor assays with benzyl alcohol used alone
Description: The outdoor assays were carried out on squares of grass having a surface area of 1 m^2. The application of the product is carried out with a compression sprayer which makes it possible to spray 20 to 100 g liquid over a surface area of 1 m^2 (equivalent to 200-1000 L/Ha).
The treated squares of grass are sprayed with a total quantity of water and pure benzyl alcohol (PanReac AppliChem—ITW Reagents) of 20 g (equivalent 200 l/Ha) including 0.5 g benzyl alcohol (equivalent to 5 L/Ha pure benzyl alcohol).
The control squares of grass receive a total quantity of 20 g water alone.
The following measurements and evaluations were carried out: • Percentage of the surface area affected: Following the assays in pots, it was noted that the change in colour correlated with the collapsing and the death of the plants. The time necessary to impact the colour of the grass as well as its surface area was evaluated. • Measurement of the collapsing of the grass: the distance between the ground and the highest part of 10 blades of grass selected at random in a square is measured. The average of these 10 blades is calculated and, after treatment, when this average distance is reduced by 30%, the collapsing time is determined.
Assay no. 2 was carried out under the same conditions as assay no. 1, except that the treated squares of grass are sprayed with a total quantity of water and benzyl alcohol of 60 g (equivalent 600 L/Ha) including 5 g pure benzyl alcohol (equivalent to 50 L/Ha pure benzyl alcohol).
Assay no. 3 was carried out under the same conditions as assay no. 1, except that the treated squares of grass are sprayed with a total quantity of 20 g pure benzyl alcohol (equivalent to 200 L/Ha pure benzyl alcohol).
Assay no. 4 was carried out under the same conditions as assay no. 1, except that the treated squares of grass are sprayed with a total quantity of water and benzyl alcohol of 60 g (equivalent 600 L/Ha) including 40 g pure benzyl alcohol (equivalent to 400 L/Ha pure benzyl alcohol).
Assay no. 5 was carried out under the same conditions as assay no. 1, except that the treated squares of grass are sprayed with a total quantity of water and benzyl alcohol of 100 g (equivalent 1000 L/Ha) including 60 g pure benzyl alcohol (equivalent to 600 L/Ha pure benzyl alcohol).
Assay no. 6 was carried out under the same conditions as assay no. 1, except that the treated squares of grass are sprayed with a total quantity of 80 g pure benzyl alcohol (equivalent to 800 L/Ha pure benzyl alcohol).

**Q.** `OCc1ccccc1` [benzyl alcohol] was tested. Which “Collapsing: time to pass from a score of 5 to a score of 1” value [1] did it give?
**A.** 144 h

**Q.** What about the “Colour intensity: time to pass from a score of 5 to a score of 1” value [1] of the same molecule?
**A.** 96 h

**Q.** What about the “Percentage of germination at 11 days” value [2] of the same molecule?
**A.** 0%

**Q.** And the “Quantity of benzyl alcohol (sprinkling) that prevents sprouting” value (from here on “Quantity of benzyl alcohol”) ([3]; preventative soil sprinkling)?
**A.** 110 L/Ha

**Q.** What about the “Plants sprouted despite the preventative treatment” value ([3]; 50 L/ha pure benzyl alcohol) of the same molecule?
**A.** yes

**Q.** And the “Plants sprouted despite the preventative treatment” value ([3]; 70 L/Ha pure benzyl alcohol)?
**A.** yes

**Q.** What about the “Plants sprouted despite the preventative treatment” value ([3]; 110 L/Ha pure benzyl alcohol) of the same molecule?
**A.** no

**Q.** What about the “Plants sprouted despite the preventative treatment” value ([3]; 120 L/Ha pure benzyl alcohol) of the same molecule?
**A.** no

**Q.** What about the “Plants sprouted despite the preventative treatment” value ([3]; 130 L/Ha pure benzyl alcohol) of the same molecule?
**A.** no

**Q.** And the “Plants sprouted despite the preventative treatment” value ([3]; 150 L/Ha pure benzyl alcohol)?
**A.** no

**Q.** What about the “Quantity of benzyl alcohol” value ([4]; preventative soil sprinkling) of the same molecule?
**A.** 130 L/Ha

**Q.** What about the “Plants sprouted despite the preventative treatment” value ([4]; 50 L/ha pure benzyl alcohol) of the same molecule?
**A.** yes

**Q.** What about the “Plants sprouted despite the preventative treatment” value ([4]; 70 L/Ha pure benzyl alcohol) of the same molecule?
**A.** yes

**Q.** And the “Plants sprouted despite the preventative treatment” value ([4]; 110 L/Ha pure benzyl alcohol)?
**A.** yes

**Q.** And the “Plants sprouted despite the preventative treatment” value ([4]; 120 L/Ha pure benzyl alcohol)?
**A.** yes

**Q.** What about the “Plants sprouted despite the preventative treatment” value ([4]; 130 L/Ha pure benzyl alcohol) of the same molecule?
**A.** no

**Q.** And the “Plants sprouted despite the preventative treatment” value ([4]; 150 L/Ha pure benzyl alcohol)?
**A.** no

**Q.** What about the “Quantity of benzyl alcohol” value ([5]; preventative soil sprinkling) of the same molecule?
**A.** 120 L/Ha

**Q.** And the “Plants sprouted despite the preventative treatment” value ([5]; 50 L/ha pure benzyl alcohol)?
**A.** yes

**Q.** What about the “Plants sprouted despite the preventative treatment” value ([5]; 70 L/Ha pure benzyl alcohol) of the same molecule?
**A.** yes

**Q.** And the “Plants sprouted despite the preventative treatment” value ([5]; 110 L/Ha pure benzyl alcohol)?
**A.** yes

**Q.** And the “Plants sprouted despite the preventative treatment” value ([5]; 120 L/Ha pure benzyl alcohol)?
**A.** no

**Q.** And the “Plants sprouted despite the preventative treatment” value ([5]; 130 L/Ha pure benzyl alcohol)?
**A.** no

**Q.** What about the “Plants sprouted despite the preventative treatment” value ([5]; 150 L/Ha pure benzyl alcohol) of the same molecule?
**A.** no

**Q.** What about the “Visual rating of the symptoms (0 = similar to control, 100 = dead plant)” value (“Visual rating of the symptoms” for short) ([6]; 30 L/ha active material, 1 day after treatment) of the same molecule?
**A.** 3

**Q.** And the “Visual rating of the symptoms” value ([6]; 30 L/ha active material, 3 days after treatment)?
**A.** 21

**Q.** And the “Visual rating of the symptoms” value ([6]; 30 L/ha active material, 7 days after treatment)?
**A.** 81

**Q.** What about the “Visual rating of the symptoms” value ([6]; 40 L/ha active material, 1 day after treatment) of the same molecule?
**A.** 59

**Q.** What about the “Visual rating of the symptoms” value ([6]; 40 L/ha active material, 3 days after treatment) of the same molecule?
**A.** 82

**Q.** And the “Visual rating of the symptoms” value ([6]; 40 L/ha active material, 7 days after treatment)?
**A.** 93

**Q.** What about the “Visual rating of the symptoms” value ([6]; 60 L/ha active material, 1 day after treatment) of the same molecule?
**A.** 63

**Q.** And the “Visual rating of the symptoms” value ([6]; 60 L/ha active material, 3 days after treatment)?
**A.** 92

**Q.** And the “Visual rating of the symptoms” value ([6]; 60 L/ha active material, 7 days after treatment)?
**A.** 100

**Q.** And the “Collapsing of the grass: time after treatment to average collapsing of 30%” value (“Collapsing of the grass: time … of 30%” below) ([7]; Assay no. 1: 1 m2 grass outdoors, 0.5 g benzyl alcohol (5 L/Ha) in 20 g total (200 l/Ha))?
**A.** 72 h

**Q.** And the “Maximum percentage of the surface area affected” value (shortened to “Maximum percentage”) ([7]; Assay no. 1: 1 m2 grass outdoors, 0.5 g benzyl alcohol (5 L/Ha) in 20 g total (200 l/Ha), observed 96 h after treatment)?
**A.** 45%

**Q.** And the “Collapsing of the grass: time … of 30%” value ([7]; Assay no. 2: 1 m2 grass outdoors, 5 g benzyl alcohol (50 L/Ha) in 60 g total (600 L/Ha))?
**A.** 48 h

**Q.** What about the “Maximum percentage” value ([7]; Assay no. 2: 1 m2 grass outdoors, 5 g benzyl alcohol (50 L/Ha) in 60 g total (600 L/Ha), observed 72 h after treatment) of the same molecule?
**A.** 60%

**Q.** And the “Collapsing of the grass: time … of 30%” value ([7]; Assay no. 3: 1 m2 grass outdoors, 20 g pure benzyl alcohol (200 L/Ha))?
**A.** 48 h

**Q.** And the “Maximum percentage” value ([7]; Assay no. 3: 1 m2 grass outdoors, 20 g pure benzyl alcohol (200 L/Ha), observed 48 h after treatment)?
**A.** 80%

**Q.** And the “Collapsing of the grass: time … of 30%” value ([7]; Assay no. 4: 1 m2 grass outdoors, 40 g benzyl alcohol (400 L/Ha) in 60 g total (600 L/Ha))?
**A.** 24 h

**Q.** And the “Maximum percentage” value ([7]; Assay no. 4: 1 m2 grass outdoors, 40 g benzyl alcohol (400 L/Ha) in 60 g total (600 L/Ha), observed 24 h after treatment)?
**A.** 100%

**Q.** What about the “Collapsing of the grass: time … of 30%” value ([7]; Assay no. 5: 1 m2 grass outdoors, 60 g benzyl alcohol (600 L/Ha) in 100 g total (1000 L/Ha)) of the same molecule?
**A.** 6 h

**Q.** What about the “Maximum percentage” value ([7]; Assay no. 5: 1 m2 grass outdoors, 60 g benzyl alcohol (600 L/Ha) in 100 g total (1000 L/Ha), observed 24 h after treatment) of the same molecule?
**A.** 100%

**Q.** What about the “Collapsing of the grass: time … of 30%” value ([7]; Assay no. 6: 1 m2 grass outdoors, 80 g pure benzyl alcohol (800 L/Ha)) of the same molecule?
**A.** 6 h

**Q.** What about the “Maximum percentage” value ([7]; Assay no. 6: 1 m2 grass outdoors, 80 g pure benzyl alcohol (800 L/Ha), observed 6 h after treatment) of the same molecule?
**A.** 100%
